From PMC7524750, “Dual COX and 5-LOX inhibition by clerodane diterpenes from seeds of Polyalthia longifolia (Sonn.) Thwaites” (Scientific Reports, 2020)
Read-outs that look alike come from different tables or passages of the source.

What was measured:
COX-1 = target: T1, COX-1 (Ovis aries, UniProt P05979); assay: Cyclooxygenase COX-1 inhibitory assay (Cayman COX inhibitor assay kit); format: biochemical, ovine; conditions: mean ± SD, n=3; for inhibition at 2.5 µg/mL / inhibition at 5 µg/mL / inhibition at 7.5 µg/mL / inhibition at 10 µg/mL: read-out: Percentage inhibition COX1
T1 construct: purchased Cayman 560131
T1 sequence (P05979 25-600): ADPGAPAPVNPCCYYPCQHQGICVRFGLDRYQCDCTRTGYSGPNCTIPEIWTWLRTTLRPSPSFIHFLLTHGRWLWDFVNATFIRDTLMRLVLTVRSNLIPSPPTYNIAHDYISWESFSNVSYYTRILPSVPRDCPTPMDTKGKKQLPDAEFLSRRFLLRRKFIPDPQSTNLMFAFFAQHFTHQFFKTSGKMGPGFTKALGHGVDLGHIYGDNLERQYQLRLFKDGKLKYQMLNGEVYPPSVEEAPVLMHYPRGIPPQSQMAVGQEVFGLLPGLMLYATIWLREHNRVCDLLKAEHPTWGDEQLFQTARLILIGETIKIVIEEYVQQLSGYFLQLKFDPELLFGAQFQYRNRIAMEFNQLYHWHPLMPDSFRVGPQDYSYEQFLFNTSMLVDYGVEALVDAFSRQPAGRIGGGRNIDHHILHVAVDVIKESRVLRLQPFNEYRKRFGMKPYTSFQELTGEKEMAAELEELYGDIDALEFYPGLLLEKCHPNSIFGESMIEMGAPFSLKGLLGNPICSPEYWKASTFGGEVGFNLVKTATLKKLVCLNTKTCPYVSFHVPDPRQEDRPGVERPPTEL
Description: (§1) To 10 µl of either COX1 or COX2 added 0.1 M Tris–HCl buffer (960 µl) and different known concentrations of test samples and incubated at 37 °C for 10 min. Later 10 µl of 100 µM arachidonic acid, after 2 min 1 M HCl of 50 µl and Ellman’s reagent, were added. The absorbance was measured spectrophotometrically at 410 nm against the blank. The percentage of inhibition was deliberated with the absorbance values, and IC50 values were calculated by linear regression.

COX-2 = target: T2, COX-2 (Homo sapiens, UniProt P35354); assay: Cyclooxygenase COX-2 inhibitory assay (Cayman COX inhibitor assay kit); format: biochemical; conditions: mean ± SD, n=3; for inhibition at 2.5 µg/mL / inhibition at 5 µg/mL / inhibition at 7.5 µg/mL / inhibition at 10 µg/mL: read-out: Percentage inhibition COX2
T2 construct: purchased Cayman 560131
T2 sequence (P35354 18-604): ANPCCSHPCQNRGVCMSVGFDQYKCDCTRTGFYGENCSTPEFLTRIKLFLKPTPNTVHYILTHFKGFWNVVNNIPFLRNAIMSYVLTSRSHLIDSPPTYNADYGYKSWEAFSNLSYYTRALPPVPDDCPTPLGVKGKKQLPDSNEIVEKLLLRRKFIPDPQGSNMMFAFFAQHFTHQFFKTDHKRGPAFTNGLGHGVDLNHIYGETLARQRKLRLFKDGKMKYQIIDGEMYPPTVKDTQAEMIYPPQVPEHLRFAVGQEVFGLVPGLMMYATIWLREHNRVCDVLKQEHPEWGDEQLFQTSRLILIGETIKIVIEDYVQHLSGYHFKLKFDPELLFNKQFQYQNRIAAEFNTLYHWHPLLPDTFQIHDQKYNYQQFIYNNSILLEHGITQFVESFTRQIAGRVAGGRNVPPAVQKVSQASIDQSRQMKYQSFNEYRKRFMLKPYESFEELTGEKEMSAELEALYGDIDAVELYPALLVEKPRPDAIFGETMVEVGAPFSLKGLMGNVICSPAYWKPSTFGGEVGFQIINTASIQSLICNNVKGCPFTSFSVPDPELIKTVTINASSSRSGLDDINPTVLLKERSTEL
Description: as §1

[1] = target: T3, 5-LOX (human recombinant) (Homo sapiens, UniProt P09917); assay: 5-lipoxygenase inhibitory assay (5-LOX assay kit); format: biochemical; conditions: mean ± SD, n=3; for inhibition at 2.5 µg/mL / inhibition at 5 µg/mL / inhibition at 7.5 µg/mL / inhibition at 10 µg/mL: read-out: Percentage inhibition 5-LOX
T3 construct: purchased Sigma Aldrich 437996
T3 sequence (P09917 1-674): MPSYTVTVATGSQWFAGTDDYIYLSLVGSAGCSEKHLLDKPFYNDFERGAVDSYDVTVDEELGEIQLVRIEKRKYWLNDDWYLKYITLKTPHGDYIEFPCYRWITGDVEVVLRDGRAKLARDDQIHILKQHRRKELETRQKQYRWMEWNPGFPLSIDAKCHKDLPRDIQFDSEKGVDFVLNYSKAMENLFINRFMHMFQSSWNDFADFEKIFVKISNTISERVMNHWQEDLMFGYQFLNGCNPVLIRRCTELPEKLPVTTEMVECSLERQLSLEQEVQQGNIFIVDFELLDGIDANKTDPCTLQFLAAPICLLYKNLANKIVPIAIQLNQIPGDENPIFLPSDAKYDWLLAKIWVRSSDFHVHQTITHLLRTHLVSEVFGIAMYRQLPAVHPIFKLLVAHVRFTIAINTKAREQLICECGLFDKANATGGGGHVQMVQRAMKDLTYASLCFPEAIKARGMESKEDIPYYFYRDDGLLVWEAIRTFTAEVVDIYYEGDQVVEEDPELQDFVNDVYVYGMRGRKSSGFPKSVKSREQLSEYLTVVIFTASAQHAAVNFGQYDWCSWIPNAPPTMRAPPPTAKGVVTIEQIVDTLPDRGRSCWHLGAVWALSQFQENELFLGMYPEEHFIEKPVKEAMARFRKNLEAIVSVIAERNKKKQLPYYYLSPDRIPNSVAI
Description: To 90 µl of 5-LOX enzyme solution added different test sample concentrations, 100 µl of de chromogen, and finally added 10 µl of the substrate (arachidonic acid) and gently shake or 10 min and absorbance was measured at 490 nm against the blank. The % inhibition was deliberated with the absorbance values by which IC50 values were calculated by linear regression.

[2] = linear regression, read-out: IC50 values COX1 (converted)
[3] = linear regression, read-out: IC50 values COX2 (converted)
[4] = IC50 5-LOX (concentration required for 50% inhibition), Fig. 2
[5] = linear regression, read-out: IC50 values 5-LOX (converted)

| SMILES | inhibition at 2.5 µg/mL (COX-1) [%] | inhibition at 5 µg/mL (COX-1) [%] | inhibition at 7.5 µg/mL (COX-1) [%] | inhibition at 10 µg/mL (COX-1) [%] | IC50 (COX-1; Fig. 2, read-out: IC50 COX-1) [µM] | IC50 (COX-1; [2]) [µM] | inhibition at 2.5 µg/mL (COX-2) [%] | inhibition at 5 µg/mL (COX-2) [%] | inhibition at 7.5 µg/mL (COX-2) [%] | inhibition at 10 µg/mL (COX-2) [%] | IC50 (COX-2; Fig. 2, read-out: IC50 COX-2) [µM] | IC50 (COX-2; [3]) [µM] | inhibition at 2.5 µg/mL [1] [%] | inhibition at 5 µg/mL [1] [%] | inhibition at 7.5 µg/mL [1] [%] | inhibition at 10 µg/mL [1] [%] | IC50 [1, 4] [µM] | IC50 [1, 5] [µM] |
| --- | --- | --- | --- | --- | --- | --- | --- | --- | --- | --- | --- | --- | --- | --- | --- | --- | --- | --- |
| CC1=CCCC2C1(C)CCC(C)C2(C)CCC(C=O)=CC(=O)O (stereo not drawn) [Compound 1, 16-oxo-cleroda-3,13(14)E-dien-15-oic acid] | 21.8 ± 1.55 | 40.3 ± 3.77 | 47.1 ± 2.71 | 60.4 ± 4.48 | 25.1 ± 0.99 | 25.1 | 10.7 ± 2.91 | 23.4 ± 3.07 | 42.8 ± 0.72 | 62.9 ± 3.84 | 26.4 ± 0.45 | 26.4 | 13.4 ± 0.72 | 25.7 ± 2.74 | 41.1 ± 1.43 | 65.4 ± 0.93 | 26.4 ± 0.39 | 26.4 |
| CC1=CCCC2C1(C)CCC(C)C2(C)CCC(=CC(=O)O)CO (stereo not drawn) [Compound 2, 16-hydroxy-cleroda-3,13-dien-15-oic acid] | 16.3 ± 3 | 28.3 ± 3.1 | 42.5 ± 1.68 | 50.9 ± 0.6 | 30.44 ± 0.3 | 30.4 | 34.5 ± 2.11 | 59.2 ± 0.77 | 77.4 ± 0.9 | 85 ± 1.17 | 12.7 ± 0.34 | 12.7 | 12.5 ± 1.45 | 24.5 ± 1.92 | 40 ± 4.41 | 51.2 ± 1.35 | 30.5 ± 0.53 | 30.5 |
| C=C1CCCC2C1(C)CCC(C)C2(C)CCC1=CC(=O)OC1O (stereo not drawn) [Compound 3, 16-hydroxy-cleroda-4(18),13-dien-16,15-olide] | 38.1 ± 0.72 | 61.5 ± 1.84 | 68.3 ± 2.99 | 83.9 ± 2.27 | 11.8 ± 0.19 | 11.8 | 48.8 ± 0.96 | 63.2 ± 1.41 | 73.3 ± 1.15 | 82.97 ± 0.44 | 8.49 ± 0.55 | 8.51 | 34.7 ± 1.47 | 59.3 ± 0.66 | 77.5 ± 0.92 | 85 ± 1.05 | 12.7 ± 0.21 | 12.7 |
